Assay results as given in ChEMBL document CHEMBL5653615 (J Biol Chem, 2013).

Key:
[1] = target: T1, Aurora kinase C (Homo sapiens) (UniProt Q9UQB9); test: Inhibition of human Aurora C at 18.6 nM by HotSpot assay relative to control
T1 sequence (whole entry): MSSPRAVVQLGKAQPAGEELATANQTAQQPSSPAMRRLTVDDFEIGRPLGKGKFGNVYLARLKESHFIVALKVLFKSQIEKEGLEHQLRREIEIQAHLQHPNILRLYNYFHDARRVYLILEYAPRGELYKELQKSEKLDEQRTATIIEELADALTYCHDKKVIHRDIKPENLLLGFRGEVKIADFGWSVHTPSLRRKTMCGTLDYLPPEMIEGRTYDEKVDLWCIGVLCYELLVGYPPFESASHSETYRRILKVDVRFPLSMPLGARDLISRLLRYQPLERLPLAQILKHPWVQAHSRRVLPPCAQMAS

[2] = target: MAP/microtubule affinity-regulating kinase 3 (Homo sapiens) (UniProt P27448); test: Inhibition of human MARK3 at 18.6 nM by HotSpot assay relative to control
MAP/microtubule affinity-regulating kinase 3 (Homo sapiens), sequence (P27448 whole entry, looked up): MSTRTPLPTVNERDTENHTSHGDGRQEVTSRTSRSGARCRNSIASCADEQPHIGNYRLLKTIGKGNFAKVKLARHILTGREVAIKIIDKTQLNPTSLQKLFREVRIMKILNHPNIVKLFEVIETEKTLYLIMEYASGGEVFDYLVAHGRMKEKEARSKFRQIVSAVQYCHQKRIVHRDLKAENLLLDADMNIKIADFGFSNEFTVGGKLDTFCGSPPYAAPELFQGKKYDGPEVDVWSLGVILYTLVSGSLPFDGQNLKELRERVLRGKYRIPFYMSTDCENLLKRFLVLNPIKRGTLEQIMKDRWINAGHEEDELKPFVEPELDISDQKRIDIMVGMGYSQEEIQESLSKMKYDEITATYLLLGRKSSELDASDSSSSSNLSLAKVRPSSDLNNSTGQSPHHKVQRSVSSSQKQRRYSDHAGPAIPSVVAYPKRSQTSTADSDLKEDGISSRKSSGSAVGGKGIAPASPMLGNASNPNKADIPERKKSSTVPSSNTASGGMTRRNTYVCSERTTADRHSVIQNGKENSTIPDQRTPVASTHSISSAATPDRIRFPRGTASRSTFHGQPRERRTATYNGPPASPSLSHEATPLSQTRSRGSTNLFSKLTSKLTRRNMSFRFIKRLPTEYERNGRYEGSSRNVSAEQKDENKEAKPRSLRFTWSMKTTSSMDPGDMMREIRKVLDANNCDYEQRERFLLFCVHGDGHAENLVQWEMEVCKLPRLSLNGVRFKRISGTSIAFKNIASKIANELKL

[3] = target: Interleukin-1 receptor-associated kinase 1 (Homo sapiens) (UniProt P51617); test: Inhibition of human IRAK1 at 18.6 nM by HotSpot assay relative to control
Interleukin-1 receptor-associated kinase 1 (Homo sapiens), sequence (P51617 whole entry, looked up, the tested form may be a part): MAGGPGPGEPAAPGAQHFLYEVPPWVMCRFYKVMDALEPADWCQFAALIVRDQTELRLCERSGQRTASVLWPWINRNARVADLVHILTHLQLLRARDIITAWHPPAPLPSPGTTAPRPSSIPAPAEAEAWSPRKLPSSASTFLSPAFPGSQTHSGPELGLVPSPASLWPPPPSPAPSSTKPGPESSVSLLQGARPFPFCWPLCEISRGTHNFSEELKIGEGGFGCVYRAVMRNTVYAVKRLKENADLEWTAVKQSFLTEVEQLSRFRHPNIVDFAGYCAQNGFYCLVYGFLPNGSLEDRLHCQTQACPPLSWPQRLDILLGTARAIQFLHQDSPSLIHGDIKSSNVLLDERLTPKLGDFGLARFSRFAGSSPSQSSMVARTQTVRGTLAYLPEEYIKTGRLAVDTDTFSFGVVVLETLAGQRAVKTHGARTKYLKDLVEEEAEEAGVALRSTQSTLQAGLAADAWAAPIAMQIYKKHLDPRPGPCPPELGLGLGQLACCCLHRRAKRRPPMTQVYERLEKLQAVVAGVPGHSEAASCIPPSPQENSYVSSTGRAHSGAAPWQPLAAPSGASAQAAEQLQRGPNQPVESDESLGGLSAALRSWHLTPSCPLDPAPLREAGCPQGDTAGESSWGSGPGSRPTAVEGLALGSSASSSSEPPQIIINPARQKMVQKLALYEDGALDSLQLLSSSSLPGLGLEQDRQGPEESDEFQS

[4] = target: T2, Discoidin domain-containing receptor 2 (Homo sapiens) (UniProt Q16832); test: Inhibition of human DDR2 at 18.6 nM by HotSpot assay relative to control
T2 sequence (whole entry): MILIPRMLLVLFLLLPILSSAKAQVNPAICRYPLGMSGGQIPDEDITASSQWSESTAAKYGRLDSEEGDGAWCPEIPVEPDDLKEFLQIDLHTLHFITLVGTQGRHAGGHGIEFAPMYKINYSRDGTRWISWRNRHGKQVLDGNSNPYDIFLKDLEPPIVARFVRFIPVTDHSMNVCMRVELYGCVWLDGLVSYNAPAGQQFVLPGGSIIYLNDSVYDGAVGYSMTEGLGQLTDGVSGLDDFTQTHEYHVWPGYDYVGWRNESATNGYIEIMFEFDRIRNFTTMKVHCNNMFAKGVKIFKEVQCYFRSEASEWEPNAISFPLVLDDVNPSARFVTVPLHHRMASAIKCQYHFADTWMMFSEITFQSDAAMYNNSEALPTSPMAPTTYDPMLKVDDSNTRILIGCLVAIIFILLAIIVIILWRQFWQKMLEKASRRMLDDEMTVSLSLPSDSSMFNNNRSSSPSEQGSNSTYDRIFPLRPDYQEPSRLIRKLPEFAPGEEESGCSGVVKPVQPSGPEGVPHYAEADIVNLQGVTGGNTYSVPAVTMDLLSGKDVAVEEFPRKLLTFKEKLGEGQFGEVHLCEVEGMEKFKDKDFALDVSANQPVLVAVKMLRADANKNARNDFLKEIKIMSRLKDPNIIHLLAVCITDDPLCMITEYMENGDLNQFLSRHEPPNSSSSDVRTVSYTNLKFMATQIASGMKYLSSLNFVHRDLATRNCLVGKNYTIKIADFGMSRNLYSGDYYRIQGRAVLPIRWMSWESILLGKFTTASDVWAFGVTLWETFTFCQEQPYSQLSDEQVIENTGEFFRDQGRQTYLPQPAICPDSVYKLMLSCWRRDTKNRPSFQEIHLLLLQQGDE

[5] = target: T3, Dual serine/threonine and tyrosine protein kinase (Homo sapiens) (UniProt Q6XUX3); test: Inhibition of human RIPK5 at 18.6 nM by HotSpot assay relative to control
T3 sequence (whole entry): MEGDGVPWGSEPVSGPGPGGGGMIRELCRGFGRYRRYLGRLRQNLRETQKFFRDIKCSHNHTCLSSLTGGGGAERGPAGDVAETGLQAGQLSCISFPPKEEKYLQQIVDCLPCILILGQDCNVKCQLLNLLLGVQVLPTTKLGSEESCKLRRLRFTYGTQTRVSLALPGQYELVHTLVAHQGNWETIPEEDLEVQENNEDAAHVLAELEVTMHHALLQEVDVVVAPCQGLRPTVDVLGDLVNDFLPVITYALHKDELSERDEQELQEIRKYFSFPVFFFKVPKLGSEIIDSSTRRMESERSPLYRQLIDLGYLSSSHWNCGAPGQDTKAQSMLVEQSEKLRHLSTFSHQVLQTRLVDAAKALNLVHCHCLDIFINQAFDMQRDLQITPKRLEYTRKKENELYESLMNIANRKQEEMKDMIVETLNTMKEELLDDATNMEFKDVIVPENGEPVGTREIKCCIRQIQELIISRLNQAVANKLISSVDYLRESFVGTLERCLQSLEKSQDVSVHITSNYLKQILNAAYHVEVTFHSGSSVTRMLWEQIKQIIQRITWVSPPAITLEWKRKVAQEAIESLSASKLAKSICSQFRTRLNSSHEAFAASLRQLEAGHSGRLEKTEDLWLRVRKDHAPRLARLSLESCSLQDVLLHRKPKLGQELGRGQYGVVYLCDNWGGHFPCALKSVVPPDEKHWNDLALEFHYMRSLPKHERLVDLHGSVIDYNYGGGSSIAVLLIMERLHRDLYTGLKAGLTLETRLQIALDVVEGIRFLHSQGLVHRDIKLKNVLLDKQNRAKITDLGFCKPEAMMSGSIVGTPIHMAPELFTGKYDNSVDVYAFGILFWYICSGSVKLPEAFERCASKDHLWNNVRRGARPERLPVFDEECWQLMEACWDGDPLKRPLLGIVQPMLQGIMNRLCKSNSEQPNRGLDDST

[6] = target: Ribosomal protein S6 kinase alpha-5 (Homo sapiens) (UniProt O75582); test: Inhibition of human RPS6KA5 at 18.6 nM by HotSpot assay relative to control
Ribosomal protein S6 kinase alpha-5 (Homo sapiens), sequence (O75582 whole entry, looked up): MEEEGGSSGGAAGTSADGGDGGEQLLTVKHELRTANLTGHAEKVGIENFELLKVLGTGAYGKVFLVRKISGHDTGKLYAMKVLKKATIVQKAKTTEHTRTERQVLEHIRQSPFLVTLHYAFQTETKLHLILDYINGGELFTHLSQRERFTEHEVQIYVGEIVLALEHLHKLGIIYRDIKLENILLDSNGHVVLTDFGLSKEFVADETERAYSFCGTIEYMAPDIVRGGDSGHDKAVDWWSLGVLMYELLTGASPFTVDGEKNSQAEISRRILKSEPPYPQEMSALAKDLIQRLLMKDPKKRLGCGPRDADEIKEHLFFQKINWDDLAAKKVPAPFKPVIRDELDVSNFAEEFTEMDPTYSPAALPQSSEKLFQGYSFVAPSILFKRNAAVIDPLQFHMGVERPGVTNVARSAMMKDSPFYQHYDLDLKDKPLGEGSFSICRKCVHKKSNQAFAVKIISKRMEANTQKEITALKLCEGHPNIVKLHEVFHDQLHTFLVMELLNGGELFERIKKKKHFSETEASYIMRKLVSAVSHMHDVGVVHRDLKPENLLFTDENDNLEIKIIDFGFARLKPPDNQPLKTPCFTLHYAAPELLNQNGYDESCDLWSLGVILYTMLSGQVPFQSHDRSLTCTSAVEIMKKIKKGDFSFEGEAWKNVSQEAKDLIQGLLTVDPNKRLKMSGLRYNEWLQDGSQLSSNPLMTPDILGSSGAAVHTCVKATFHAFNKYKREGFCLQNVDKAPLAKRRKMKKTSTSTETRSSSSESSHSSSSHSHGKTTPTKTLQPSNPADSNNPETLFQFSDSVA

[7] = target: T4, cAMP-dependent protein kinase catalytic subunit PRKX (Homo sapiens) (UniProt P51817); test: Inhibition of human PRKX at 1.82 nM by HotSpot assay relative to control
T4 sequence (whole entry): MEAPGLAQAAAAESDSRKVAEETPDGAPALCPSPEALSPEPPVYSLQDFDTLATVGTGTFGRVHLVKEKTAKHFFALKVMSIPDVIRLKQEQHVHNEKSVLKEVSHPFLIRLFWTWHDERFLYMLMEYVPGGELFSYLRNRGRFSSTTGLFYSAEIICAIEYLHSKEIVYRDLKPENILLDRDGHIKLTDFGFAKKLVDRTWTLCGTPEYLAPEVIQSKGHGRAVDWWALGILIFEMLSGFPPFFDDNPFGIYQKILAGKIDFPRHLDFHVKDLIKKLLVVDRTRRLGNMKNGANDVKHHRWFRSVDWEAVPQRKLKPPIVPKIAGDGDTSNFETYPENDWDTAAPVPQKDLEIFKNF

[8] = target: Tyrosine-protein kinase ABL2 (Homo sapiens) (UniProt P42684); test: Inhibition of human ABL2 at 1.82 nM by HotSpot assay relative to control
Tyrosine-protein kinase ABL2 (Homo sapiens), sequence (P42684 whole entry): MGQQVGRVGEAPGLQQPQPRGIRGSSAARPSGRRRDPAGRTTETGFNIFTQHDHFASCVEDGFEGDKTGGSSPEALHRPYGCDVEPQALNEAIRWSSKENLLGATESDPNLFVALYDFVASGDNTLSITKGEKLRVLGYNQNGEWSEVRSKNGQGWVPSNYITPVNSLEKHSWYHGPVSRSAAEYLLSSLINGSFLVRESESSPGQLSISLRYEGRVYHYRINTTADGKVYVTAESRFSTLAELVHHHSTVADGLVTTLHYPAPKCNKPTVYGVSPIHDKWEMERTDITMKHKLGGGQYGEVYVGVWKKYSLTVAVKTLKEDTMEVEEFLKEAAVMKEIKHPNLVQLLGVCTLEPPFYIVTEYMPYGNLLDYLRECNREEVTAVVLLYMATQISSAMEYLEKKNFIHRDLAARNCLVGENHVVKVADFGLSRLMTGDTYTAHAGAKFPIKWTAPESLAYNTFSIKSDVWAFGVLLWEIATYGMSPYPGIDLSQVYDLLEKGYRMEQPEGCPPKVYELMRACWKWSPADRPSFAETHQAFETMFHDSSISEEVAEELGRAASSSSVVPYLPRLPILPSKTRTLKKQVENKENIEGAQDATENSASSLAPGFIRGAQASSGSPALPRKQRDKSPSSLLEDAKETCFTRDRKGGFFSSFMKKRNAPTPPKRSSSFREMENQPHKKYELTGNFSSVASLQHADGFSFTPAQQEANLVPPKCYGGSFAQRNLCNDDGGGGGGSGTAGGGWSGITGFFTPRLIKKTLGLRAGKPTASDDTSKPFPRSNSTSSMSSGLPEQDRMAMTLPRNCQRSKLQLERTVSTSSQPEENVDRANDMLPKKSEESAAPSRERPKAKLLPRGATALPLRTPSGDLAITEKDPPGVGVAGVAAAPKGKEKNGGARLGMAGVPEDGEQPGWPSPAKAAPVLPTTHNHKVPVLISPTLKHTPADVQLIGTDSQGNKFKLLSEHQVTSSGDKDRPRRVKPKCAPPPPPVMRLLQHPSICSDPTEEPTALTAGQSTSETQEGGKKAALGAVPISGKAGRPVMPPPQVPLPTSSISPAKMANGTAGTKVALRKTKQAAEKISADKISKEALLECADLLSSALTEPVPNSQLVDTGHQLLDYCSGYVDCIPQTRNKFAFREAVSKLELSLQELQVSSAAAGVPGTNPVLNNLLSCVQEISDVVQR

SMILES	inhibition [1] [%]	inhibition [2] [%]	inhibition [3] [%]	inhibition [4] [%]	inhibition [5] [%]	inhibition [6] [%]	inhibition [7] [%]	inhibition [8] [%]
C[C@]1(O)C[C@@H](c2nc(-c3ccc4ccc(-c5ccccc5)nc4c3)c3c(N)nccn32)C1	-7.85	2.43	-8.8	-2.4	-0.63	-5.75		
C[C@@]1(C(=O)Nc2ccc(F)nc2)CCCN1c1nc(Nc2cc(C3CC3)n[nH]2)c2cccn2n1							0.19	-4.72
